Experimental data reported in publication PMC12530851, “Design, synthesis, and apoptotic antiproliferative activity of novel dihydropyrimidine-5-carbonitrile/1,2,4-oxadiazole hybrids as dual EGFR/VEGFR-2 inhibitors endowed with antioxidant activity” (RSC Advances, 2025).

Columns and labels:
[1] = test system: MCF-7 (breast cancer); test: Antiproliferative assay, MCF-7; assay type: cell-based, human; details: for IC50: Homo sapiens, MCF7, MCF-7 breast cancer cells, read-out: Antiproliferative activity IC50 ± SEM, MCF-7
Description: (§1) The dose–response experiments established the IC50 values for the new compounds. The given findings were obtained from at least two distinct studies, each comprising three repeats per concentration. Appendix A (SI File) provides experimental details.[38,39]
(§2) The MTT assay[43] was utilized to assess the antiproliferative effects of compounds 10a–l on four human cancer cell lines: HT-29 (colon cancer), Panc-1 (pancreatic cancer), A-549 (lung cancer), and MCF-7 (breast cancer). […]
(§3) 4.2.2. Assay for antiproliferative effect
(§4) To explore the antiproliferative potential of compounds propidium iodide fluorescence assay was performed using different cell lines such as Panc-1 (pancreas cancer cell line), MCF-7 (breast cancer cell line), HT-29 (colon cancer cell line) and A-549 (epithelial cancer cell line), respectively. To calculate the total nuclear DNA, a fluorescent dye (propidium iodide, PI) is used which can attach to the DNA, thus offering a quick and precise technique. PI cannot pass through the cell membrane and its signal intensity can be considered as directly proportional to quantity of cellular DNA. Cells whose cell membranes are damaged or have changed permeability are counted as dead ones. The assay was performed by seeding the cells of different cell lines at a density of 3000-7500 cells/well (in 200μl medium) in culture plates followed by incubation for 24h at 37 °C in humidified 5%CO2/95% air atmospheric conditions. The medium was removed; the compounds were added to the plates at 10 μM concentrations (in 0.1% DMSO) in triplicates, followed by incubation for 48h. DMSO (0.1%) was used as control. After incubation, medium was removed followed by the addition of PI (25 μl, 50μg/mL in water/medium) to each well of the plates. At - 80 °C, the plates were allowed to freeze for 24 h, followed by thawing at 25 °C. A fluorometer (Polar-Star BMG Tech) was used to record the readings at excitation and emission wavelengths of 530 and 620 nm for each well. The percentage cytotoxicity of compounds was calculated using […]
(§5) Where ATC= Absorbance of treated cells and AC= Absorbance of control. Erlotinib was used as positive control in the assay. […]

[2] = test system: Panc-1 (pancreatic cancer); test: Antiproliferative assay, Panc-1; assay type: cell-based; details: Homo sapiens; Panc-1 pancreatic cancer cells; read-out: Antiproliferative activity IC50 ± SEM, Panc-1
Description: as §1, §2, §3, §4, §5

[3] = test system: caspase-9; test: Caspase-9 activation assay in MCF-7 cells; assay type: cell-based, human; details: for Caspase-9 Fold change: vs untreated control
Experimental: (§6) Compounds10k and 10l were tested as caspases-3, 8, 9, Bax and p53 activators and as down-regulators of the anti-apoptotic protein Bcl2 against the MCF-7 breast cancer cell line.[41] Appendix A gives more details.
To elucidate the apoptotic processes of compounds 10k and 10l, whether via the intrinsic or extrinsic pathway, their impacts on caspase-8 and caspase-9 were evaluated. […] This signifies the activation of both intrinsic and extrinsic pathways (Table 5).
4.2.6. Caspase-8/9 activation assay
Cells were obtained from American Type Culture Collection, cells were grown in RPMI 1640 containing 10% fetal bovine serum at 37°C, stimulated with the compounds to be tested for caspase 8/9, and lysed with Cell Extraction Buffer. This lysate was diluted in Standard Diluent Buffer over the range of the assay and measured for human active caspase-8/9 content. (Cells are Plated in a density of 1.2 – 1.8 × 10,000 cells/well in a volume of 100µl complete growth medium + 100 ul of the tested compound per well in a 96-well plate for 24 hours before the enzyme assay). The absorbance of each microwell was read on a spectro-photometer at 450 nm. […]

[4] = test system: Bcl-2; test: Bcl-2 level assay in MCF-7 cells; assay type: cell-based, human; details: for Bcl-2 Fold reduction: vs untreated control
Experimental: as §6
The Bcl-2 protein family, which includes pro-apoptotic proteins (Bax) and anti-apoptotic proteins (Bcl-2), primarily regulates apoptosis.[46] […] Consequently, we assessed the expression levels of Bcl-2 and Bax proteins in MCF-7 breast cancer cells treated with compounds 10k and 10l, Table 6. […]
4.2.8. Bcl-2 inhibition assay
Mix all the reagents thoroughly without foaming before use. Wash the microwells twice with approximately 300 μL Wash Buffer per well with thorough aspiration of microwell contents between washes. Take caution not to scratch the surface of the microwells. After the last wash, empty the wells and tap microwell strips on absorbent pad or paper towel to remove excess Wash Buffer. Use the microwell strips immediately after washing or place upside down on a wet absorbent paper for not longer than 15 minutes. […] Add 100 μL of Sample […]
Diluent in duplicate to all standard wells and to the blank wells. Prepare standard (1:2 dilution) in duplicate ranging from 32 ng/mL to 0.5 ng/mL. Add 100 μL of Sample Diluent, in duplicate, to the blank wells. Add 80 μL of Sample Diluent, in duplicate, to the sample wells. Add 20 μL of each Sample, in duplicate, to the designated wells. Add 50 μL of diluted biotin-conjugate to all wells, including the blank wells. Cover with a plate cover and incubate at room temperature, on a microplate shaker at 100 rpm if available, for 2 hours. Remove plate cover and empty the wells.
Wash microwell strips 3 times as described in step 2. Add 100 μL of diluted Streptavidin-HRP to all wells, including the blank wells. Cover with a plate cover and incubate at room temperature, on a microplate shaker at 100 rpm if available, for 1 hour. Remove the plate cover and empty the wells. Wash microwell strips 3 times as described in step 2. Proceed to the next step. Pipette 100 μl of mixed TMB Substrate Solution to all wells, including the blanks. […] The point, at which the substrate reaction is stopped, is often determined by the ELISA reader. Many ELISA readers record absorbance only up to 2.0
O.D. Therefore, the color development within individual microwells must be watched by the person running the assay and the substrate reaction stopped before positive wells are no longer properly detectable. […] Results must be read immediately after the Stop Solution is added or within one hour if the microwell strips are stored at 2 - 8°C in the dark. Read the absorbance of each microwell on a spectrophotometer using 450 nm as the primary wavelength.

[5] = test system: HT-29 (colon cancer); test: Antiproliferative assay, HT-29; assay type: cell-based; details: Homo sapiens; HT-29 colon cancer cells; read-out: Antiproliferative activity IC50 ± SEM, HT-29
Description: as §1, §2, §3, §4, §5

[6] = test system: p53; test: p53 level assay in MCF-7 cells; assay type: cell-based, human
Experimental: as §6
P53's ability to eliminate superfluous, damaged, or contaminated cells by apoptosis is critical for the proper regulation of cell proliferation in multicellular organisms.[49] p53 is activated by both external and internal stress signals, allowing for nuclear accumulation in an active state. As a result, p53 induces either reversible cell growth arrest or apoptosis. The aforesaid activity is necessary for tumor suppression.[50]

| SMILES | IC50 [1] [nM] | Potency relative to erlotinib, MCF-7 ([1]; more potent than erlotinib) | IC50 [2] [nM] | Caspase-9 Conc [3] [ng/mL] | Caspase-9 Fold change [3] [fold] | Bcl-2 [4] [ng/mL] | Bcl-2 Fold reduction [4] [fold] | IC50 [5] [nM] | p53 [6] [pg/mL] |
| --- | --- | --- | --- | --- | --- | --- | --- | --- | --- |
| COc1ccc(-c2nc(SCc3nc(-c4ccc(Cl)cc4)no3)[nH]c(=O)c2C#N)cc1 [Compound 10k, 2-(((3-(4-Chlorophenyl)-1,2,4-oxadiazol-5-yl)methyl)thio)-4-(4-methoxyphenyl)-6-oxo-1,6-dihydropyrimidine-5-carbonitrile] | 20 ± 1 | twice as potent | 22 ± 1 | 24 ± 1 | 24 | 1.20 ± 0.001 | 4 | 23 ± 1 | 330 ± 2 |
| COc1ccc(-c2noc(CSc3nc(-c4ccc(OC)cc4)c(C#N)c(=O)[nH]3)n2)cc1 [Compound 10l, 2-(((3-(4-Methoxyphenyl)-1,2,4-oxadiazol-5-yl)methyl)thio)-4-(4-methoxyphenyl)-6-oxo-1,6-dihydropyrimidine-5-carbonitrile] | 22 ± 1 |  | 26 ± 1 | 22 ± 1 | 22 | 1.50 ± 0.001 | 3 | 28 ± 1 | 285 ± 2 |
